Results published in patent publication US6482609B1, “Isolated human EDG-4 receptor and polynucletide encoding said receptor” (priority 1997, dated 2002).
Like-named read-outs stand apart in the source and are kept apart here.

Legend:
[1] = tested on: Human Umbilical Vein Endothelial Cells (HUVEC); experiment: IL-8 ELISA on primary cultured HUVEC treated with lysolipids; type: cell-based; conditions: 6 hr treatment
Procedure: Plating, Pretreatment and Treatment of HUVEC
Procedures were followed as detailed above in “Procedure #1 for HeLa Cells” with the following exceptions:
Cells were plated at 20,000 cells/well into 24-well plates. The next day, cells were serum-starved overnight in EBM medium (Clonetics) with 0.5% FBS, and then treated in EBM without FBS for 6 hr with the following lysolipids:
Supematants were collected and IL-8 levels were deternined using ELISA as described previously.

human EDG-4 = human EDG-4 (Homo sapiens, UniProt O95136); experiment: SRE luciferase reporter in 293-EBNA cells, human EDG-4; type: cell-based; conditions: for EC50: 293-EBNA expressing human EDG-4, luciferase after 6 hr, pcDNA3 response subtracted; for Agonist character at EDG-4: conclusion from the reporter assay of Table 2; for Rank (EMax): rank of efficacy among compounds tested
Procedure: NE-κB activates gene expression by binding to specific DNA sequences found in the promoters of genes regulated by this inflammation-related transcription factor. […] The SRE reporter was identical to the NF-κB reporter, except that the NF-κB binding sites were replaced with 2 SRE sites. The new reporter was called 2XSREtk-p4Luc-zeo.
The protocol described in Example 11 for Assay 1 was followed except for the following changes:
2) SRE Cotransfection: 0.5 μg of 2XSREtk-p4Luc-zeo reporter DNA and 3.5 μg pcDNA3, EDG-1, EDG-3 (pC3-hE3HP2, different from the clone used in Assay 2 of Example 11) or the newly cloned human EDG-4 (pC3-hedg4#36); NF-κB Cotransfection: 2 μg 6XNFκBtk-p4Luc-zeo reporter DNA and 2.0 μg pcDNA3, EDG-1, EDG-3 (pC3-hE3HP2), or EDG-4 (pC3-hedg4#36). Expression plasmid and reporter plasmid DNA samples were combined and diluted in 750 μl of DMEM/F12 (serum free media) and 20 μl Plus Reagent (Lipofectamine Plus Kit, Life Technologies Cat. 10964-013), and incubated at room temperature for 15 min.
1) Media was removed and cells treated with compounds diluted in DMEM/F12 media.
2) The cells were treated for 6 hours.
3) Luciferase assay was performed.
Transfection was accomplished using the Lipofectamine Plus kit (Life Technologies, Cat. 10964-013), using the manufacturer's recommended conditions.
(§1) Transfection of EDG-4, expression, pretreatment and treatment of 293-EBNA cells expressing recombinant human EDG-4 was carried out essentially as described in “Example 11. […] Results were tabulated in Microsoft Excel, and analyzed with GraphPad Prism software. […] The luciferase response was expressed as fold response, after subtracting any endogenous response in pcDNA3-transfected cells at a given concentration of compound.

[2] = tested on: 293-EBNA cells expressing recombinant human EDG-4; experiment: Cytotoxicity seen in the EDG-4 agonist reporter assay (293-EBNA cells); type: cell-based
Procedure: as §1

rat edg4 = rat edg4 (Rattus norvegicus, UniProt P47752); experiment: NF-κB-tk-p4Luc luciferase reporter in 293-EBNA cells, rat EDG-4; type: cell-based; parameters: expressed in transfected cells; host or cells: 293-EBNA; conditions: pC3-redg4, Assay #1, 24 hrs
Procedure: Monolayer Transient Transfection Protocol for 293-EBNA
1) 150 mm plates of 293-EBNA obtained from Invitrogen (Cat. R620-07) with a confluency of ˜80% were used for transfection.
2) 6.6 μg NF-κB-tk-p4Luc reporter DNA and 6.6 μg of pC3-redg4 (expressing rat EDG-4), or pcDNA3 DNA was diluted in 500 μl OPTI-MEM (Gibco; Cat. 31985-062)
3) 96.8 μl Lipofectamine (Gibco; Cat. 18324-020) was diluted in 500 μl of OPTI-MEM.
6) 6 ml OPTI-MEM was added to each transfection tube and this was added to a plate of 293-EBNA cells. The plates were left for 4 hrs at 37° C. in a 5% CO2 incubator.
2) 0.02×10^6 cells were plated per well of a 96-well Blackview plate coated with polyD-lysine. No cells were plated in the outside wells of the 96well plate. Two 96-well plates were seeded for each transfection.
1) Cells were washed with PBS and 140 μl serum-free media (SFM) added to each well. Plates were incubated in 37° C. incubator for 6 hrs.
2) After 6 hrs, media was removed and cells treated with compounds diluted in 0.5% FBS media (140 μl added to each well).
3) Cells were treated for 24 hrs.
1) Luclite kit (Packard; Cat. 6016911) was used for luciferase assay. All reagents were brought to room temperature before use.
3) 50 μl 0.5M HEPES pH 7.8 buffer (1 mM MgCl2, 1 mM CaCl2) was added to all wells of 96-well plate. Black adhesive backing (Polyfitronics) was aligned to the bottom of the viewplate.
4) Luclite substrate was made up by adding 10 ml substrate diluent to 1 vial lyophilized substrate. Reconstituted substrate was kept under a dark container. 50 μl substrate was added to each well.
7) After incubation, plates were counted in a 12-detector Packard Top Count on a program without dark delay.
Transient Transfection Protocol for 293-EBNA
The above protocol for assay 1 was followed except for the following changes:
2) 3 μg NFκB-tk-p4Luc reporter DNA and 3 μg pC3-hedg1, pC3-hedg3, pC3-redg4, pC3-hedg5 or pcDNA3 DNA was diluted in 240 μl OPTI-MEM (Gibco; Cat. 31985-062)
1) 0.01×10^6 cells were plated per well of a 96-well Blackview plate coated with polyD-lysine. No cells were plated in the outside wells of the 96-well plate.

HeLa cells [3] = experiment: IL-8 ELISA on supernatants of treated HeLa cells; type: cell-based, human; conditions: for Inhibition of IL-8 response to S1P by antioxidants: NDGA 10 or 40 μM, NAC 30 mM
Procedure: Procedure #1 For HeLa Cells
Cells: HeLa (adenocarcinoma, human)
Media: DMEM/F12+10%FBS adherent
1) Cells were seeded at 0.2×10^6 cells/well in 6-well plates.
2) 1.5 ml 0.5% FBS media was added to each well.
1) Made up all required solutions in 0.5% FBS media (control). Handling of […] for use in NF-κB experiments requires that sonication, commonly used to resuspend LPA, not be done; NF-κB may be activated by lipid peroxides created through vigorous frothing.
3) 1.5 ml appropriate treatments were added to each well.
5) After the specified time cell supernatants were collected into 1.5 ml eppendorf tubes, spun down at 14000 rpm for 5 minutes and stored at −20° C. for later ELISA determination.
D. Detection of Interleukin-8 (IL-8) using an IL-8 ELISA (Enzyme-Linked InimunoSorbent Assay).
1) The Quantikine Human IL-8 ImmunoAssay Kit was obtained from R&D Systems (Cat. D8050).
4) The assay procedure was followed as recommended in the kit for cell culture supernatant samples.
5) ELISA was performed on 50 μl samples of culture supernatant and duplicate samples were measured for each well. Each treatment was performed on triplicate wells.
6) Plates were read on UVmax kinetic microplate reader (Molecular Devices), set to 450 nm and correction set to 575 nm, using Wsoftmax software version 2.34.
Procedure #2 For HeLa Cells
1) Cells were seeded at 2.5×10^4 cells/well in 24-well plates.
2) 0.5 ml 0.5% FBS media was added to all wells not requiring PTX pre-treatment.
3) For wells requiring PTX; 0.5 ml 0.5% FBS media containing 50 ng/ml PTX (1 volume PTX (RBI Cat. P140): 1 volume DTT, incubate 37° C. for 30 minutes then dilute to 50 ng/ml) was added.
Follow Procedure #2 For HeLa Cells with the following exceptions:
Concentrations for LPC, LPE, LPG, LPS, sphingosine and SM used were 10, 50, 100, 1000, and 5000 nM. Concentrations for LPI, lyso-PAF and lysosulfatide used were 0.3 and 3 μM.
2) A 30 minute pre-treatment at 37° C./5%CO2 of 0.5 ml of suramin was done to all wells except control, any PTX and ET-18-OCH3 wells before step 3 of section C.

HL-60 cells = experiment: IL-8 ELISA on HL-60 cells; type: cell-based, human; conditions: 1, 6 or 24 hr, S1P or LPA up to 3 μM, TNF-α 10 ng/ml
Procedure: Procedure for HL-60 Cells:
Cells: HL-60 (promyelocytic, human) suspension cells
Media: RPMI 1640 medium with 2 mM L-glutamine adjusted to contain 4.5 g/L glucose, 10 mM HEPES, and 1.0 mM sodium pyruvate+10% FBS
1) Cells were plated at a density of 0.25×10^6 cells/ml.
2) Cell pellcts were resuspended in 0.5% FBS media at a density of approximately 1×10^6 cells/ml.
1) Made up all required solutions in 0.5% FBS media (control).
2) 1.4 ml appropriate treatments were added to each well of a 6-well plate.
5) 100 μl cell suspension was added to each well.
7) After the specified time cell supematants were collected into 1.5 ml eppendorf tubes, spun down at 14000 rpm for 5 minutes and stored at −20° C.
D. Refer to Procedure #1 For HeLa Cells (D).

HeLa cells [4] = experiment: Cytotoxicity (viable cell count) in HeLa cells; type: cell-based, human; conditions: 40 μM
Description: Follow Procedure #2 For HeLa Cells with the following exceptions: […]

[5] = S1P 1 μM, 30 minute pre-treatment

Sequence of rat edg4 (P47752 whole entry): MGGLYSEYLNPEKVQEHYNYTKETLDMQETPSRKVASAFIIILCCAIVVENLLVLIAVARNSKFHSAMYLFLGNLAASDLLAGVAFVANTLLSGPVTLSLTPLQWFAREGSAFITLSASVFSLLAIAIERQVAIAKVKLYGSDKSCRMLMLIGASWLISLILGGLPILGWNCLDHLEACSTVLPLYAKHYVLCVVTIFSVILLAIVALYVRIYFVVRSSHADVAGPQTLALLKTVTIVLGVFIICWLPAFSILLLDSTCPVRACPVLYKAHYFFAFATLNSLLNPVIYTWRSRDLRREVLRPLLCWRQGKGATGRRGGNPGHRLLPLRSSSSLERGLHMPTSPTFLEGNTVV

## CCCCC/C=C\C/C=C\C/C=C\C/C=C\CCCC(=O)NCCO [anandamide]
[1]
  IL-8 response (qualitative): no response

## CCCCCCCCCCCCC/C=C/[C@@H](O)[C@@H](N)CO[C@@H]1O[C@H](CO)[C@H](O)[C@H](O)[C@H]1O [Psychosine]
Human EDG-4
  EC50: > 10 µM
  Agonist character at EDG-4: poor potency and efficacy
  Rank (EMax): 5
[1]
  IL-8 response (qualitative): Marginal increases
[2]; higher concentrations
  Cytotoxicity (qualitative): cytotoxicity at higher concentrations

## CCCCCCCCCCCCCC(=O)O[C@@H]1[C@@H](C)[C@@]2(O)[C@@H](C=C(CO)C[C@]3(O)C(=O)C(C)=C[C@@H]23)[C@H]2C(C)(C)[C@]12OC(C)=O [TPA]
Rat edg4
  NF-κB reporter induction (qualitative): strongly induced the NF-κB reporter

## CC(=O)N[C@@H](CS)C(=O)O [NAC]
HeLa cells [3]; [5]
  Inhibition of IL-8 response to S1P by antioxidants: significantly inhibited

## CCCCCCCCCCCCC/C=C/[C@@H](O)[C@@H](N)CO [sphingosine, Sphingosine]
HeLa cells [3]; 6 hours, 10-5000 nM or 0.3 and 3 μM
  IL-8 production (ligand selectivity): lack of response

## Cc1ccc(C(=O)Nc2ccc(S(=O)(=O)O)c3cc(S(=O)(=O)O)cc(S(=O)(=O)O)c23)cc1NC(=O)c1cccc(NC(=O)Nc2cccc(C(=O)Nc3cc(C(=O)Nc4ccc(S(=O)(=O)O)c5cc(S(=O)(=O)O)cc(S(=O)(=O)O)c45)ccc3C)c2)c1 [Suramin]
HeLa cells [3]; PTX 50 ng/ml or suramin 1 mg/ml
  Inhibition of the IL-8 response to edelfosine: potently inhibited
HeLa cells [3]; S1P 1 μM, suramin 1 mg/ml, 30 minute pre-treatment
  Effect of suramin on IL-8 response to S1P: extremely effective in blunting the IL-8 response to S1P

## TNF-α
HL-60 cells
  IL-8 release: releasing IL-8

## CCCCCCCCCCCCCCC[C@@H](O)[C@@H](N)COP(=O)(O)O [Dihydro-S1P, dihydrosphingosine 1-phosphate]
Human EDG-4
  EC50: 0.53 µM
  Agonist character at EDG-4: partial agonist
  Rank (EMax): 3
Human EDG-4; fold luciferase response, 6 hr
  Max. Fold: 2.84
Human EDG-4; relative efficacy, 6 hr
  EMax (Percent): 49.2%

## CCCCCCCCCCCCCCCCCCOCC(COP(=O)([O-])OCC[N+](C)(C)C)OC (stereo not drawn) [Edelfosine]
[1]
  IL-8 response (qualitative): no response

## CC(Cc1ccc(O)c(O)c1)C(C)Cc1ccc(O)c(O)c1 (stereo not drawn) [NDGA]
HeLa cells [4]
  Toxicity: some toxicity
HeLa cells [3]; S1P 1 μM
  Relative potency of antioxidants in inhibiting IL-8 response to S1P: more potent than the hydrophilic NAC
HeLa cells [3]; S1P 1 μM, NDGA 40 μM
  Inhibition of IL-8 response to S1P at 40 μM: completely inhibited the IL-8 response to S1P
HeLa cells [3]; [5]
  Inhibition of IL-8 response to S1P by antioxidants: significantly inhibited

## CCCCCCCCCCCCC/C=C/[C@@H](O)C(N)CO[C@@H]1O[C@H](CO)[C@@H](O)[C@H](O)[C@@H]1O (stereo partly drawn) [Glucospychosine, glucopsychosine]
Human EDG-4
  EC50: > 10 µM
  Agonist character at EDG-4: poor potency and efficacy
  Rank (EMax): 4
[2]
  Concentration at which cytotoxicity was seen: ^aCytotoxicity was seen at 10 μM or higher concentrations, preventing quantitative determination of EC50 or EMax
  Cytotoxicity (qualitative): cytotoxicity at higher concentrations
